IC50 data for 11 molecules are collected here from patent US10633419B2, “Immunomodulators” (BRISTOL-MYERS SQUIBB COMPANY, priority 2014, dated 2020).

Each structure is given as a SMILES string. Positions of bridges follow the written chain, without caps; N, C: chain ends. Non-standard residues stand in square brackets, D forms with d. Residues, ends and D or L forms follow the SMILES beside them. *: point of attachment. X6 = O=C(O)CCCCCCCCCCCCCCCCC(=O)N[C@@H](CCC(=O)NCCCOCCOCCOCCCN*)C(=O)O; Trp(1-CH2COOH) = N[C@@H](Cc1cn(CC(=O)O)c2ccccc12)C(=O)O; Phe(4-F) = N[C@@H](Cc1ccc(F)cc1)C(=O)O; Hyp = O=C(O)[C@@H]1C[C@@H](O)CN1; NMeNle = CCCC[C@H](NC)C(=O)O; Pip = O=C(O)[C@@H]1CCCCN1; NMeA = CN[C@@H](C)C(=O)O; Pra = C#CC[C@H](N)C(=O)O; Dab = NCC[C@H](N)C(=O)O; Dap = NC[C@H](N)C(=O)O

In one test the target is T1, PD-L1 (Homo sapiens, UniProt Q9NZQ7).
T1 construct: hPDL1(19-239)-TVMV-His; made in house; host or cells: HEK293T
T1 sequence (Q9NZQ7 with tags, fused parts or gaps): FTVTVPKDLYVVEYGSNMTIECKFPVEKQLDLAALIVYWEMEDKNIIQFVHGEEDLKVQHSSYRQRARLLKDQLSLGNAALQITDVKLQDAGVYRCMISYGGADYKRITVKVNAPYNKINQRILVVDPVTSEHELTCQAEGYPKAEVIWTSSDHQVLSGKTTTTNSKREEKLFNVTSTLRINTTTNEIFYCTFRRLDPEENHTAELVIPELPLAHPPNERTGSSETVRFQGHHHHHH
The test can be described thus: PD-1/PD-L1 Homogenous Time-Resolved Fluorescence (HTRF) binding assay (PD-1-Ig/PD-L1-His). The following applies: inhibition of PD-1-Ig binding to PD-L1-TVMV-His; value given as number; read-out: HTRF IC50. Summed up:
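HTRF competition in dPBS with 0.1% BSA and 0.05% Tween-20: 20 nM PD-1-Ig added after 15 min compound pre-incubation with 10 nM PD-L1-His, then another 15 min. Signal (665/620 nm) after 30 min with APC anti-His (20 nM) and Eu anti-Ig (1 nM).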
A general note: In TR-FRET formats the signal depends on donor and acceptor labels being close together.
Consider `CCCC[C@H]1C(=O)N(C)[C@@H](CCCC)C(=O)N[C@@H](CC(C)C)C(=O)N[C@H](C(=O)NCC(=O)N[C@@H](Cc2cn(CC[C@H](NC(=O)CCCCCCCCCCCCCCCCC(=O)O)C(=O)O)nn2)C(=O)O)CSCC(=O)N[C@@H](Cc2ccc(O)cc2)C(=O)N2CCCC[C@H]2C(=O)N[C@@H](CC(N)=O)C(=O)N2CCC[C@H]2C(=O)N[C@@H](CN)C(=O)N[C@@H](CC(C)C)C(=O)N2C[C@H](O)C[C@H]2C(=O)N[C@@H](Cc2c[nH]c3ccccc23)C(=O)N[C@@H](CCN)C(=O)N[C@@H](Cc2cn(CC(=O)O)c3ccccc23)C(=O)N1C` [Example 13132], for which the IC50 is 0.0033 µM.

The test is the same for the next values; noted with them: inhibition of PD-1-Ig binding to PD-L1-TVMV-His; value given as range class; read-out: HTRF IC50.
With `CCCC[C@H]1C(=O)N(C)[C@@H](CCCC)C(=O)N[C@@H](CC(C)C)C(=O)N[C@H](C(=O)NCC(=O)N[C@@H](CC(=O)NCCCOCCOCCOCCCNC(=O)CC[C@H](NC(=O)CCCCCCCCCCCCCCCCC(=O)O)C(=O)O)C(=O)O)CSCC(=O)N[C@@H](Cc2ccc(F)cc2)C(=O)N2CCCC[C@H]2C(=O)N[C@@H](CC(=O)O)C(=O)N2CCC[C@H]2C(=O)N[C@@H](CN)C(=O)N[C@@H](CCC(=O)O)C(=O)N2C[C@H](O)C[C@H]2C(=O)N[C@@H](Cc2c[nH]c3ccccc23)C(=O)N[C@@H](CCN)C(=O)N[C@@H](Cc2cn(CC(=O)O)c3ccccc23)C(=O)N1C` [Example 11266] ({CH2CO}-[Phe(4-F)][Pip]DP[Dap]E[Hyp]W[Dab][Trp(1-CH2COOH)][NMeNle][NMeNle]LCGD(X6)-OH; thioether N-14), the IC50 lay in the range of 0.0003 to 0.0099 µM. For the molecule `C#CC[C@H](NC(=O)CNC(=O)[C@@H]1CSCC(=O)N[C@@H](Cc2ccc(O)cc2)C(=O)N(C)[C@@H](C)C(=O)N[C@@H](CC(N)=O)C(=O)N2CCC[C@H]2C(=O)N[C@@H](CN)C(=O)N[C@@H](CC(C)C)C(=O)N2C[C@H](O)C[C@H]2C(=O)N[C@@H](Cc2c[nH]c3ccccc23)C(=O)N[C@@H](CCN)C(=O)N[C@@H](Cc2cn(CC(=O)O)c3ccccc23)C(=O)N(C)[C@@H](CCCC)C(=O)N(C)[C@@H](CCCC)C(=O)N[C@@H](CC(C)C)C(=O)N1)C(=O)N[C@@H](CCC(=O)NCCCOCCOCCOCCCNC(=O)CC[C@H](NC(=O)CCCCCCCCCCCCCCCCC(=O)O)C(=O)O)C(=O)O` [Example 11267] ({CH2CO}-Y[NMeA]NP[Dap]L[Hyp]W[Dab][Trp(1-CH2COOH)][NMeNle][NMeNle]LCG[Pra]E(X6)-OH; thioether N-14), the IC50 fell in the range of 0.01 to 0.099 µM.

On to `CCCCCCCCCCCCCC(=O)NCc1cn(CC[C@H](NC(=O)CNC(=O)[C@@H]2CSCC(=O)N[C@@H](Cc3ccc(O)cc3)C(=O)N(C)[C@@H](C)C(=O)N[C@@H](CC(N)=O)C(=O)N3CCC[C@H]3C(=O)N[C@@H](CN)C(=O)N[C@@H](CC(C)C)C(=O)N3C[C@H](O)C[C@H]3C(=O)N[C@@H](Cc3c[nH]c4ccccc34)C(=O)N[C@@H](CO)C(=O)N[C@@H](Cc3csc4ccccc34)C(=O)N(C)[C@@H](CCCC)C(=O)N(C)[C@@H](CCCC)C(=O)N[C@@H](CCCNC(=N)N)C(=O)N2)C(N)=O)nn1` [Example 13051], for which the half-inhibitory concentration (IC50) fell in the range of 0.01 to 0.099 µM. Consider `CCCC[C@H]1C(=O)N(C)[C@@H](CCCC)C(=O)N[C@@H](CCCNC(=N)N)C(=O)N[C@H](C(=O)NCC(=O)N[C@@H](CCn2cc(CNC(=O)COCCOCCOC)nn2)C(N)=O)CSCC(=O)N[C@@H](Cc2ccc(O)cc2)C(=O)N(C)[C@@H](C)C(=O)N[C@@H](CC(N)=O)C(=O)N2CCC[C@H]2C(=O)N[C@@H](CN)C(=O)N[C@@H](CC(C)C)C(=O)N2C[C@H](O)C[C@H]2C(=O)N[C@@H](Cc2c[nH]c3ccccc23)C(=O)N[C@@H](CO)C(=O)N[C@@H](Cc2csc3ccccc23)C(=O)N1C` [Example 13052], for which the IC50 fell in the range of 0.01 to 0.099 µM.

Take `CCCC[C@H]1C(=O)N(C)[C@@H](CCCC)C(=O)N[C@@H](CC(C)C)C(=O)N[C@H](C(=O)NCC(=O)NCC(=O)N[C@@H](Cc2cn(CC[C@H](NC(=O)CCCCCCCCCCCCCCCCC(=O)O)C(=O)O)nn2)C(=O)O)CSCC(=O)N[C@@H](Cc2ccc(O)cc2)C(=O)N(C)[C@@H](C)C(=O)N[C@@H](CC(N)=O)C(=O)N2CCC[C@H]2C(=O)N[C@@H](CN)C(=O)N[C@@H](CC(C)C)C(=O)N2C[C@H](O)C[C@H]2C(=O)N[C@@H](Cc2c[nH]c3ccccc23)C(=O)N[C@@H](CCN)C(=O)N[C@@H](Cc2cn(CC(=O)O)c3ccccc23)C(=O)N1C` [Example 13122]: the IC50 was in the range of 0.1 to 1.6 µM. The same measure, in the same setting: as for `CCCC[C@H]1C(=O)N(C)[C@@H](CCCC)C(=O)N[C@@H](CCC(=O)O)C(=O)N[C@H](C(=O)NCC(=O)N[C@@H](Cc2cn(CC[C@H](NC(=O)CCCCCCCCCCCCCCCCC(=O)O)C(=O)O)nn2)C(=O)O)CSCC(=O)N[C@@H](Cc2ccc(O)cc2)C(=O)N(C)[C@@H](C)C(=O)N[C@@H](CC(N)=O)C(=O)N2CCC[C@H]2C(=O)N[C@@H](CN)C(=O)N[C@@H](CC(C)C)C(=O)N2C[C@H](O)C[C@H]2C(=O)N[C@@H](Cc2c[nH]c3ccccc23)C(=O)N[C@@H](CCN)C(=O)N[C@@H](Cc2cn(CC(=O)O)c3ccccc23)C(=O)N1C` [Example 13125], the figure is 0.01 to 0.099 µM. The same measure, in the same setting: the result for `CCCC[C@H]1C(=O)N(C)[C@@H](CCCC)C(=O)N[C@@H](CCC(=O)O)C(=O)N[C@H](C(=O)NCC(=O)N[C@@H](Cc2cn(CC[C@H](NC(=O)CCCCCCCCCCCCCCCCC(=O)O)C(=O)O)nn2)C(=O)O)CSCC(=O)N[C@@H](Cc2ccc(O)cc2)C(=O)N(C)[C@@H](C)C(=O)N[C@@H](CC(=O)O)C(=O)N2CCC[C@H]2C(=O)N[C@@H](CN)C(=O)N[C@@H](CC(C)C)C(=O)N2C[C@H](O)C[C@H]2C(=O)N[C@@H](Cc2c[nH]c3ccccc23)C(=O)N[C@@H](CCN)C(=O)N[C@@H](Cc2cn(CC(=O)O)c3ccccc23)C(=O)N1C` [Example 13126] reads 0.01 to 0.099 µM; that for `CCCC[C@H]1C(=O)N(C)[C@@H](CCCC)C(=O)N[C@@H](CC(C)C)C(=O)N[C@H](C(=O)N[C@@H](Cc2cn(CCC(NC(=O)CCCCCCCCCCCCCCCCC(=O)O)C(=O)O)nn2)C(=O)O)CSCC(=O)N[C@@H](Cc2ccc(O)cc2)C(=O)N(C)[C@@H](C)C(=O)N[C@@H](CC(N)=O)C(=O)N2CCC[C@H]2C(=O)N[C@@H](CN)C(=O)N[C@@H](CC(C)C)C(=O)N2C[C@H](O)C[C@H]2C(=O)N[C@@H](Cc2c[nH]c3ccccc23)C(=O)N[C@@H](CCN)C(=O)N[C@@H](Cc2cn(CC(=O)O)c3ccccc23)C(=O)N1C` (some centres unmarked) [Example 13129], 0.01 to 0.099 µM. Still for that read-out and setting: the result for `CCCC[C@H]1C(=O)N(C)[C@@H](CCCC)C(=O)N[C@@H](CCC(=O)O)C(=O)N[C@H](C(=O)N[C@@H](Cc2cn(CCC(NC(=O)CCCCCCCCCCCCCCCCC(=O)O)C(=O)O)nn2)C(=O)O)CSCC(=O)N[C@@H](Cc2ccc(O)cc2)C(=O)N(C)[C@@H](C)C(=O)N[C@@H](CC(N)=O)C(=O)N2CCC[C@H]2C(=O)N[C@@H](CN)C(=O)N[C@@H](CC(C)C)C(=O)N2C[C@H](O)C[C@H]2C(=O)N[C@@H](Cc2c[nH]c3ccccc23)C(=O)N[C@@H](CCN)C(=O)N[C@@H](Cc2cn(CC(=O)O)c3ccccc23)C(=O)N1C` (some centres unmarked) [Example 13130] reads 0.0003 to 0.0099 µM; that for `CCCC[C@H]1C(=O)N(C)[C@@H](CCCC)C(=O)N[C@@H](CC(=O)O)C(=O)N[C@H](C(=O)N[C@@H](Cc2cn(CCC(NC(=O)CCCCCCCCCCCCCCCCC(=O)O)C(=O)O)nn2)C(=O)O)CSCC(=O)N[C@@H](Cc2ccc(O)cc2)C(=O)N(C)[C@@H](C)C(=O)N[C@@H](CC(N)=O)C(=O)N2CCC[C@H]2C(=O)N[C@@H](CN)C(=O)N[C@@H](CC(C)C)C(=O)N2C[C@H](O)C[C@H]2C(=O)N[C@@H](Cc2c[nH]c3ccccc23)C(=O)N[C@@H](CCN)C(=O)N[C@@H](Cc2cn(CC(=O)O)c3ccccc23)C(=O)N1C` (some centres unmarked) [Example 13131], 0.01 to 0.099 µM.

The IC50 is the concentration that gives 50% inhibition.
